Reference: patent US20120220039A1, “METHOD AND SYSTEM FOR DETECTING RESIDUAL POISON IN HUMAN BODY” (THE HONG KONG UNIVERSITY OF SCIENCE AND TECHNOLOGY, priority 2009, published 2012)

Assay: Drug analysis of abuser in different hair segments by HPLC-Chip-MS/MS
Type: in vivo, human
Source text: Parent drug and its metabolites normally appear in hair after 5-7 day once administered. Hair normally grows at 0.75-1 cm/month. Drug taking habit or history can be reflected by analysis in different hair segments.
Hair specimens were collected and cut into different lengths. With the application of different conditions in Examples 1-8, drug distribution in different hair segments was illustrated (FIGS. 29 and 30).

[1] = Hair segment sample no. 1, hair length 0-4 cm, time 0-3 month
[2] = Hair segment sample no. 2, hair length 4-8 cm, time 3-6 month
[3] = Hair segment sample no. 3, hair length 8-12 cm, time 6-9 month
[4] = Hair segment sample no. 4, hair length 12-16 cm, time 9-12 month
[5] = Hair segment sample no. 5, hair length 16-20 cm, time 12-15 month
[6] = Hair segment sample no. 6, hair length 20-24 cm, time 15-18 month
[7] = Hair segment sample no. 7, hair length 24-28 cm, time 18-21 month
[8] = Hair segment sample no. 8, hair length 28-32 cm, time 21-24 month

Row | Compound | Concentration in hair segment [1] [pg/mg] | Concentration in hair segment [2] [pg/mg] | Concentration in hair segment [3] [pg/mg] | Concentration in hair segment [4] [pg/mg] | Concentration in hair segment [5] [pg/mg] | Concentration in hair segment [6] [pg/mg] | Concentration in hair segment [7] [pg/mg] | Concentration in hair segment [8] [pg/mg]
1 | CN[C@@H](C)Cc1ccccc1 [Methamphetamine] | 117.6 | 263.6 | 198.2 | 201.1 | 107.3 | 920 | 156.3 | 273.5
2 | Methadone | 18.7 | 18.3 | 18.4 | 18.3 | 18.3 | 18.3 | 18.3 | 18.4
